In patent US8518958B2, “Pyrido [2,3-D] pyrimidines and their use as kinase inhibitors” (Forma Therapeutics, Inc., priority 2006, dated 2013):

What was measured:
B-Raf delta1-415 = B-Raf delta1-415 (Homo sapiens, UniProt P15056); experiment: B-Raf kinase inhibition (MAPH filter plate, 33P-ATP, MEK1 substrate); settings: read-out: Biochemical IC50 B-Raf
Procedure, shortened: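 Radiometric filter-binding assay with B-Raf delta1-415 at a level giving 50% turnover, MEK1 substrate and 33P-ATP (12.5 μCi/ml) in 20 mM Mops pH 7.0 with Mg/Mn, 1 h at room temperature. Inhibitor dilution series from 10 μM; EDTA-stopped reactions captured on phosphocellulose filters, counted by scintillation for IC50.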

HT-29 tumor cells = experiment: Anti-proliferative activity, SRB assay; type: cell-based, human; settings: Homo sapiens, HT-29, 72 h, 72 hours exposure, read-out: CELLULAR IC50 HT-29
Procedure, shortened: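 Cells at 3,000-15,000/well, plated 24 h before compound, exposed to a concentration range for 72 hours. Proliferation measured by SRB staining after cold TCA fixation, absorbance at OD570; IC50 estimated from % inhibition versus DMSO-treated cells.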

[1] = biological target: C-Raf Raf-1 (truncated), active (Homo sapiens, UniProt P04049, Y340D/Y341D); experiment: C-Raf kinase inhibition (MAPH assay / IMAP assay); settings: read-out: Biochemical IC50 C-Raf
Chain of C-Raf Raf-1 (truncated), active (P04049 306-648 Y340D/Y341D): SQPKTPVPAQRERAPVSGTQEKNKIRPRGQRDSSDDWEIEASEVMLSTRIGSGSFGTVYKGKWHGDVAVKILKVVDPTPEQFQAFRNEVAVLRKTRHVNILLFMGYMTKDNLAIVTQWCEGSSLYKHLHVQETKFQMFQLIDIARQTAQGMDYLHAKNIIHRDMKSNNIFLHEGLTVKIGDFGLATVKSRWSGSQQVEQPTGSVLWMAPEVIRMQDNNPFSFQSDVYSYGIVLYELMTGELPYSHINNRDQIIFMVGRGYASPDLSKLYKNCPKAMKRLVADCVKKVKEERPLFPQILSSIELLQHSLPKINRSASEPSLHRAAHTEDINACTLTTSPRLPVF
Source text: We characterized the in vitro inhibitory activity against protein kinases of compounds of the present invention by determining their IC50 values (see Table 2).
Kinase: C-Raf Raf-1 (truncated), active (Upstate; cat. no. 14-352)
Reaction Temperature: room temperature
Assay Plate: 96 well U bottom plate (Greiner, 650161)
MultiScreen-PH Plate: 96 well MAPH Filter Plates (Millipore, MAPHNOB50)
Filter Washing Solution: 0.75% H3PO4
Scintillation Liquid: Supermix Liquid Scintillator (PerkinElmer, 1200-439)
Negative Control (C−): 100 mM EDTA, no inhibitor
Positive Control (C+): no inhibitor
Reaction Buffer (Final Concentration):
Final Assay Concentrations:
Kinase: Use kinase conc. yielding 10% ATP turnover as determined in titration experiment.
Adenosine 5′-[γ-^33P]triphosphate: 12.5 μCi/ml (Amersham Biosciences, BF1000)
Substrate: Myelin Basic Protein 57.8 μM (Invitrogen, 13228-010)
Pipetting Sequence: • 1) Add 10 μl 4-fold concentrated substrate+4-fold concentrated ATP in 3-fold concentrated reaction buffer to each well of assay plate • 2) Add 10 μl […] concentrated inhibitor in 4% DMSO in H2O to each well except to C− and C+ wells (starting point: final inhibitor concentration 10 μM; IC50 determination based on dilution series) • 3) Add 10 μl 4% DMSO in H2O to C− and C+ wells • 4) Add 10 μl 500 mM EDTA in H2O to C− wells • 5) Add 10 μl 50 μCi/ml adenosine 5′-[γ-^33P]triphosphate in H2O to each well • 6) Add 10 μl […] concentrated kinase in Reaction Buffer to each well • 7) Incubate 1 hr at room temperature • 8) Add 10 μl 50 mM EDTA in H2O to each well except to C− wells • 9) Prepare MAPH plates by adding 200 μl 0.75% H3PO4 to each well • 10) Exhaust 0.75% H3PO4 using Millipore vacuum station • 11) Add 60 μl 0.75% H3PO4 to each well of MAPH filter plate • 12) Transfer 30 μl sample per well from assay plate to corresponding well of MAPH filter plate • 13) Incubate 30 min at room temperature • 14) Wash each well of MAPH filter plates 3× with 200 μl 0.75% H3PO4 using Millipore vacuum station • 15) Add 20 μl scintillation liquid to each well of MAPH filter plate • 16) Seal MAPH filter plate • 17) Store MAPH filter plate 30 min in darkness • 18) Quantify radioactivity using scintillation counter (MicroBeta, Perkin-Elmer)
Reaction Volume: 8.0108 μl
IMAP Incubation Time: 60 min
Assay Plate: 384 well U bottom, PP, black, low volume (Corning, 3676)
Compound Plate: 384 well U bottom, PS (Falcon, 3995)
IMAP Binding Buffer A: Molecular Devices, R7282
IMAP Binding Buffer B: Molecular Devices, R7283
IMAP Binding Reagent: Molecular Devices, R7207
Negative Control (C−): no kinase, no inhibitor
Reation buffer: 20 mM Hepes, pH 7.5 • 1 mM DTT • 10 mM MnCl2 • 0.01% Brij35
Kinase: Kinase conc. yielding 50% substrate turnover as determined in titration experiment • c-Raf (Upstate 14-352)
Substrate: 5F1-SGQLIDSMANSFV-NH2 400 nM (jpt Peptide Technologies GmbH, Berlin, Germany)
IMAP Binding Solution: 75% IMAP Binding Buffer A • 25% IMAP Binding Buffer B • IMAP Binding Reagent 1:800
Pipetting Sequence: • 1) Add 6 μl 1.33-fold concentrated substrate+1.33-fold concentrated ATP in 1-fold concentrated reaction buffer to each well of assay plate • 2) Add 10.8 nl 740-fold concentrated inhibitor in 100% DMSO to each well except to C− and C+ wells using pintool (CyBio, Jena, Germany) (starting point: final inhibitor concentration 10 μM; IC50 determination based on dilution series) • 3) Add 10.8 nl 100% DMSO to C− and C+ wells using pintool • 4) Add 2 μl reaction buffer to C− wells • 5) Add 2 μl 4-fold concentrated kinase in reaction buffer to each well except C− wells • 6) Incubate according to reaction time at room temperature • 7) Add 15 μl IMAP binding solution to each well • 8) Incubate according to IMAP incubation time at room temperature • 9) Measure fluorescence polarization (Analyst GT, Molecular Devices)

Chain of B-Raf delta1-415 (P15056 416-766): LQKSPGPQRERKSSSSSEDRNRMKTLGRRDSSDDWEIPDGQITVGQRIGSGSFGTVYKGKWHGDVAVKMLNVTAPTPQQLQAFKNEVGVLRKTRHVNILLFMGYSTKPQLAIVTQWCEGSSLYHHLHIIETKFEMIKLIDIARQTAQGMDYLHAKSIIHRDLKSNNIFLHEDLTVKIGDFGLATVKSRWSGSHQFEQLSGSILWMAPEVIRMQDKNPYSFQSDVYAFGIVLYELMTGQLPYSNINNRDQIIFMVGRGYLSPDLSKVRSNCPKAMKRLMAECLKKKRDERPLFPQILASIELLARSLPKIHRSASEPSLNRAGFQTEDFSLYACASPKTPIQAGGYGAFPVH

SMILES	IC50 (B-Raf delta1-415) [nM]	IC50 (HT-29 tumor cells) [nM]	IC50 [1] [nM]
COn1c(=O)c(-c2cc(NC(=O)c3ccccc3)ccc2Cl)cc2cnc(Nc3ccccc3)nc21 [Compound 29]	< 500	< 10000	< 100
COn1c(=O)c(-c2c(F)cccc2Cl)cc2cnc(Nc3ccc(N4CCN(C)CC4)cc3)nc21 [Compound 25, 6-(2-Chloro-6-fluorophenyl)-8-methoxy-2-(4-(4-methylpiperazino)-phenylamino)-pyrido[2,3-d]pyrimidin-7-one]	< 100	< 1000	< 100
COn1c(=O)c(-c2ccc(Cl)cc2Cl)cc2cnc(Nc3ccc(N4CCN(C)CC4)cc3)nc21 [Compound 19, 6-(2,4-Dichlorophenyl)-8-methoxy-2-(4-(4-methylpiperazino)-phenylamino)-pyrido[2,3-d]pyrimidin-7-one]	< 500	< 1000	< 100
COn1c(=O)c(-c2c(Cl)cccc2Cl)cc2cnc(Nc3cccc(S(=O)(=O)CCO)c3)nc21 [Compound 10, 6-(2,6-Dichlorophenyl)-8-methoxy-2-(3-(2-hydroxyethylsulfonyl)phenylamino)-pyrido[2,3-d]pyrimidin-7-one]	< 100	< 1000	< 100
COn1c(=O)c(-c2ccc(Cl)cc2Cl)cc2cnc(Nc3ccc(OCCN(C)C)cc3)nc21 [Compound 16, 6-(2,4-Dichlorophenyl)-8-methoxy-2-(4-(2-dimethylaminoethoxy)-phenylamino)-pyrido[2,3-d]pyrimidin-7-one]	< 500	< 1000	< 500
COn1c(=O)c(-c2c(Cl)cccc2Cl)cc2cnc(Nc3cccc(SC)c3)nc21 [Compound 2, 6-(2,6-Dichlorophenyl)-8-methoxy-2-(3-methylthiophenylamino)-pyrido[2,3-d]pyrimidin-7-one]	< 100	< 1000	< 500
COn1c(=O)c(-c2ccc(Cl)c(Cl)c2)cc2cnc(Nc3ccc(N4CCN(C)CC4)cc3)nc21 [Compound 18, 6-(3,4-Dichlorophenyl)-8-methoxy-2-(4-(4-methylpiperazino)-phenylamino)-pyrido[2,3-d]pyrimidin-7-one]	< 1000	< 10000	< 1000
COn1c(=O)c(-c2c(Cl)cccc2Cl)cc2cnc(Nc3ccc(S(C)(=O)=O)cc3)nc21 [Compound 11, 6-(2,6-Dichlorophenyl)-8-methoxy-2-(4-methylsulfonylphenylamino)-pyrido[2,3-d]pyrimidin-7-one]	< 100	< 1000	< 100
COn1c(=O)c(-c2cc(N)ccc2Cl)cc2cnc(Nc3ccccc3)nc21 [Compound 23, 6-(5-Amino-2-chlorophenyl)-8-methoxy-2-phenylamino-pyrido[2,3-d]pyrimidin-7-one]	< 500	< 10000	< 100
COn1c(=O)c(-c2c(Cl)cccc2Cl)cc2cnc(Nc3ccc(CCO)cc3)nc21 [Compound 17, 6-(2,6-Dichlorophenyl)-8-methoxy-2-(4-(2-hydroxyethyl)-phenylamino)-pyrido[2,3-d]pyrimidin-7-one]	< 100	< 1000	< 100
COn1c(=O)c(-c2c(C)cccc2C)cc2cnc(Nc3ccc(N4CCN(C)CC4)cc3)nc21 [Compound 38, 6-(2,6-Dimethylphenyl)-8-methoxy-2-(4-(4-methylpiperazino)-phenylamino)-pyrido[2,3-d]pyrimidin-7-one]	< 100	< 1000	< 100
COn1c(=O)c(-c2cc(NC(=O)c3ccccc3)ccc2Cl)cc2cnc(Nc3ccc(N4CCN(C)CC4)cc3)nc21 [Compound 9, 6-(5-Benzoylamino-2-chloro-phenyl)-8-methoxy-2-(4-(4-methylpiperazino)-phenylamino)-pyrido[2,3-d]pyrimidin-7-one]	< 500	< 1000	< 100
COn1c(=O)c(-c2c(F)cccc2Cl)cc2cnc(Nc3cccc(CO)c3)nc21 [Compound 15, 6-(2-Chloro-6-fluorophenyl)-8-methoxy-2-(3-hydroxymethylphenylamino)-pyrido[2,3-d]pyrimidin-7-one]	< 100	< 1000	< 100

Now from value to compound:

IC50 (B-Raf delta1-415) [nM]	IC50 (HT-29 tumor cells) [nM]	IC50 [1] [nM]	SMILES
< 500	< 10000	< 100	COn1c(=O)c(-c2cc(NC(C)=O)ccc2Cl)cc2cnc(Nc3ccccc3)nc21 [Compound 59]
< 500	< 1000	> 1000	CN1CCN(c2ccc(Nc3ncc4cc(-c5c(F)cccc5Cl)c(=O)n(O)c4n3)cc2)CC1 [Compound 241]
< 500	< 1000	< 100	COc1cccc(Nc2ncc3cc(-c4c(Cl)cccc4Cl)c(=O)n(OCCN)c3n2)c1 [Compound 70, 8-(2-Aminoethyl)oxy-6-(2,6-dichlorophenyl)-2-(3-methoxyphenyl)amino-pyrido[2,3-d]pyrimidin-7-one]
< 500	< 10000	< 500	COn1c(=O)c(-c2ccc(Cl)c(Cl)c2)cc2cnc(Nc3cccc(S(N)(=O)=O)c3)nc21 [Compound 64, 2-(3-Aminosulfonlyphenyl)-amino-6-(3,4-dichlorophenyl)-8-methoxy-pyrido[2,3-d]pyrimidin-7-one]
< 1000	< 1000	< 100	CC(=O)NCCCOn1c(=O)c(-c2c(Cl)cccc2Cl)cc2cnc(Nc3ccccc3)nc21 [Compound 57, 8-(3-Acetylaminopropyl)oxy-6-(2,6-dichlorophenyl)-2-phenylamino-pyrido[2,3-d]pyrimidin-7-one]
< 100	< 1000	< 500	CNCCOn1c(=O)c(-c2c(Cl)cccc2Cl)cc2cnc(Nc3cccc(OC)c3)nc21 [Compound 74, 6-(2,6-Dichlorophenyl)-8-(2-methylaminoethyl)oxy-2-(3-methoxyphenyl)amino-pyrido[2,3-d]pyrimidin-7-one]
> 10000	< 10000	> 10000	COn1c(=O)c(C(=O)Nc2ccccc2)cc2cnc(Nc3ccccc3)nc21 [Compound 61, 8-Methoxy-2-phenylamino-6-phenylaminocarbonyl-pyrido[2,3-d]pyrimidin-7-one]
< 500	< 10000	< 100	COn1c(=O)c(-c2c(Cl)cccc2Cl)cc2cnc(Nc3cc(CO)ccc3C)nc21 [Compound 45, 6-(2,6-Dichlorophenyl)-2-((2-methyl-5-hydroxymethylphenyl)-amino)-8-methoxy-pyrido[2,3-d]pyrimidin-7-one]
